{"source": "patent EP0106335B1", "about": "“Pharmaceutical composition and a method for enhancing the absorption of a pharmaceutically active compound” (Tanabe Seiyaku Co., Ltd., priority 1982, dated 1984)", "experiment": "Absorption enhancing effect of co-administered diltiazem hydrochloride on plasma drug concentration after oral administration (Experiment 1)", "format": "in vivo", "details": "male beagle dogs fasted for 24 hours", "method": "Male beagle dogs (body weight: 12 to 14 kg; one group: 3 to 8 beagle dogs) fasted for 24 hours were used in each groups. A drug having an absolute bioavailability of not more than 20 % and diltiazem hydrochloride were administered orally to the beagle dogs. After one week intervals, the drug only was administered orally to the same beagle dogs. The plasma drug concentration was examined at intervals by TCL densito metry if the drug was timepidium bromide; or by high-peformance liquid chromatography if the drug was tipepidine hibenzate or carbazochrome sodium sulfate. Based on the results obtained above, the absorption enhancing effect of diltiazem hydrochloride was calculated by the following formula; [formula]", "data": [{"smiles": "CN1C2=CC(=O)C(=NNC(N)=O)C=C2CC1S(=O)(=O)O", "note": "(stereo not drawn) [Carbazochrome sodium sulfonate, 1-methyl-5-semicarbazono-6-oxo-2,3,5,6-tetrahydroindole-2-sulfonic acid]", "values": [{"measurement": "Absorption enhancing effect", "setting": "drug 100 mg with diltiazem hydrochloride 60 mg versus drug only, plasma drug concentration by high-performance liquid chromatography", "value": 1.9}]}, {"smiles": "COC1CC(=C(c2cccs2)c2cccs2)C[N+](C)(C)C1", "note": "(stereo not drawn) [Timepidium bromide, 1,1-dimethyl-5-methoxy-3-(dithien-2-yl-methylene)-piperidinium halide]", "values": [{"measurement": "Absorption enhancing effect", "setting": "drug 300 mg with diltiazem hydrochloride 30 mg versus drug only, plasma drug concentration by TLC densitometry", "value": 2.3}]}, {"smiles": "CN1CCCC(=C(c2cccs2)c2cccs2)C1", "note": "[Tipepidine hibenzate, 3-(di-2-thienylmethylene)-1-methylpiperidine]", "values": [{"measurement": "Absorption enhancing effect", "setting": "drug 50 mg with diltiazem hydrochloride 60 mg versus drug only, plasma drug concentration by high-performance liquid chromatography", "value": 2.1}]}]}
